Data as given in PubChem BioAssay (NCI).
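96-well plates; 48 h exposure; 5 concentrations. Endpoints by linear interpolation between flanking doses. Not reached: highest tested concentration assigned. TGI: concentration producing complete growth inhibition.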

Key:
Test in all cases: NCI anticancer screen, dose series, 48 h
BT-549 breast = system: BT-549 breast
SNB-19 CNS = system: SNB-19 CNS
HS 578T breast = system: HS 578T breast
MDA-N = system: MDA-N
NCI-H226 lung = system: NCI-H226 lung
SK-MEL-28 melanoma = system: SK-MEL-28 melanoma
LOX IMVI melanoma = system: LOX IMVI melanoma
SK-MEL-2 melanoma = system: SK-MEL-2 melanoma
MALME-3M melanoma = system: MALME-3M melanoma
A498 renal = system: A498 renal
CAKI-1 renal = system: CAKI-1 renal
COLO 205 colon = system: COLO 205 colon
SR leukemia = system: SR leukemia
CCRF-CEM leukemia = system: CCRF-CEM leukemia
K-562 leukemia = system: K-562 leukemia
UACC-257 melanoma = system: UACC-257 melanoma
HCC-2998 colon = system: HCC-2998 colon
T-47D breast = system: T-47D breast
EKVX NSCLC = system: EKVX NSCLC
U251 CNS = system: U251 CNS
MCF7 breast = system: MCF7 breast
IGROV1 ovarian = system: IGROV1 ovarian
HOP-62 NSCLC = system: HOP-62 NSCLC
TK-10 renal = system: TK-10 renal
MOLT-4 leukemia = system: MOLT-4 leukemia
SN12C renal = system: SN12C renal
OVCAR-5 ovarian = system: OVCAR-5 ovarian
SF-295 CNS = system: SF-295 CNS
SF-539 CNS = system: SF-539 CNS
NCI-H522 lung = system: NCI-H522 lung
MDA-MB-231 breast = system: MDA-MB-231 breast
SK-MEL-5 melanoma = system: SK-MEL-5 melanoma
M14 melanoma = system: M14 melanoma
PC-3 prostate = system: PC-3 prostate
NCI-H460 lung = system: NCI-H460 lung
786-0 renal = system: 786-0 renal
HCT-116 colon = system: HCT-116 colon
HT29 colon = system: HT29 colon
HOP-92 NSCLC = system: HOP-92 NSCLC
ACHN renal = system: ACHN renal
SW-620 colon = system: SW-620 colon
NCI/ADR-RES ovarian = system: NCI/ADR-RES ovarian
A549 NSCLC = system: A549 NSCLC
MDA-MB-435 = system: MDA-MB-435
DU-145 prostate = system: DU-145 prostate
OVCAR-8 ovarian = system: OVCAR-8 ovarian
KM12 colon = system: KM12 colon
SK-OV-3 ovarian = system: SK-OV-3 ovarian
NCI-H23 lung = system: NCI-H23 lung
SF-268 CNS = system: SF-268 CNS
UACC-62 melanoma = system: UACC-62 melanoma
HCT-15 colon = system: HCT-15 colon
OVCAR-4 ovarian = system: OVCAR-4 ovarian
SNB-75 CNS = system: SNB-75 CNS
HL-60(TB) leukemia = system: HL-60(TB) leukemia
OVCAR-3 ovarian = system: OVCAR-3 ovarian
UO-31 renal = system: UO-31 renal
RPMI-8226 leukemia = system: RPMI-8226 leukemia
RXF 393 renal = system: RXF 393 renal

COc1cccc(-c2nc(N)c(C#N)c3c2CCS(=O)(=O)c2ccc(C)cc2-3)c1
TGI (BT-549 breast): > 100 µM | TGI (SNB-19 CNS): > 100 µM | TGI (HS 578T breast): 48 µM | TGI (MDA-N): > 42.6 µM | TGI (NCI-H226 lung): > 100 µM | TGI (SK-MEL-28 melanoma): > 100 µM | TGI (LOX IMVI melanoma): > 100 µM | TGI (SK-MEL-2 melanoma): > 100 µM | TGI (MALME-3M melanoma): > 100 µM | TGI (A498 renal): > 81.8 µM | TGI (CAKI-1 renal): > 100 µM | TGI (COLO 205 colon): > 56.4 µM | TGI (SR leukemia): 5.14 µM | TGI (CCRF-CEM leukemia): 65.1 µM | TGI (K-562 leukemia): 11 µM | TGI (UACC-257 melanoma): > 100 µM | TGI (HCC-2998 colon): > 100 µM | TGI (T-47D breast): > 100 µM | TGI (EKVX NSCLC): > 100 µM | TGI (U251 CNS): > 100 µM | TGI (MCF7 breast): > 100 µM | TGI (IGROV1 ovarian): > 100 µM | TGI (HOP-62 NSCLC): > 100 µM | TGI (TK-10 renal): > 100 µM | TGI (MOLT-4 leukemia): 87.1 µM | TGI (SN12C renal): > 100 µM | TGI (OVCAR-5 ovarian): > 100 µM | TGI (SF-295 CNS): > 100 µM | TGI (SF-539 CNS): > 100 µM | TGI (NCI-H522 lung): > 25.6 µM | TGI (MDA-MB-231 breast): > 95.3 µM | TGI (SK-MEL-5 melanoma): > 63.3 µM | TGI (M14 melanoma): > 100 µM | TGI (PC-3 prostate): > 100 µM | TGI (NCI-H460 lung): > 100 µM | TGI (786-0 renal): > 100 µM | TGI (HCT-116 colon): > 100 µM | TGI (HT29 colon): > 49.1 µM | TGI (HOP-92 NSCLC): > 100 µM | TGI (ACHN renal): > 100 µM | TGI (SW-620 colon): > 100 µM | TGI (NCI/ADR-RES ovarian): > 88 µM | TGI (A549 NSCLC): > 100 µM | TGI (MDA-MB-435): > 100 µM | TGI (DU-145 prostate): > 100 µM | TGI (OVCAR-8 ovarian): > 100 µM | TGI (KM12 colon): > 58.4 µM | TGI (SK-OV-3 ovarian): > 100 µM | TGI (NCI-H23 lung): > 100 µM | TGI (SF-268 CNS): > 100 µM | TGI (UACC-62 melanoma): > 100 µM | TGI (HCT-15 colon): > 100 µM | TGI (OVCAR-4 ovarian): > 100 µM | TGI (SNB-75 CNS): 54 µM | TGI (HL-60(TB) leukemia): 37.5 µM | TGI (OVCAR-3 ovarian): > 100 µM | TGI (UO-31 renal): > 100 µM

CC(C)(CO)CNc1nc(N)nc(Cl)c1C=O
TGI (BT-549 breast): > 100 µM | TGI (HS 578T breast): 70.7 µM | TGI (MDA-N): 72.2 µM | TGI (NCI-H226 lung): > 100 µM | TGI (SK-MEL-28 melanoma): 83.8 µM | TGI (LOX IMVI melanoma): 33.8 µM | TGI (SK-MEL-2 melanoma): 39.2 µM | TGI (MALME-3M melanoma): > 100 µM | TGI (A498 renal): > 100 µM | TGI (CAKI-1 renal): 52.6 µM | TGI (COLO 205 colon): 72.2 µM | TGI (SR leukemia): 66.6 µM | TGI (CCRF-CEM leukemia): 83.9 µM | TGI (K-562 leukemia): > 100 µM | TGI (UACC-257 melanoma): > 100 µM | TGI (HCC-2998 colon): 21.3 µM | TGI (T-47D breast): > 100 µM | TGI (EKVX NSCLC): > 100 µM | TGI (U251 CNS): > 100 µM | TGI (MCF7 breast): > 100 µM | TGI (IGROV1 ovarian): 46.4 µM | TGI (HOP-62 NSCLC): 46.1 µM | TGI (TK-10 renal): > 100 µM | TGI (MOLT-4 leukemia): 59 µM | TGI (SN12C renal): 55.3 µM | TGI (RPMI-8226 leukemia): > 100 µM | TGI (OVCAR-5 ovarian): > 100 µM | TGI (SF-295 CNS): > 100 µM | TGI (SF-539 CNS): > 100 µM | TGI (NCI-H522 lung): 23.5 µM | TGI (MDA-MB-231 breast): > 100 µM | TGI (SK-MEL-5 melanoma): > 100 µM | TGI (PC-3 prostate): 41.3 µM | TGI (NCI-H460 lung): > 100 µM | TGI (786-0 renal): > 100 µM | TGI (HCT-116 colon): 40.1 µM | TGI (HT29 colon): > 100 µM | TGI (HOP-92 NSCLC): 77.3 µM | TGI (ACHN renal): > 100 µM | TGI (SW-620 colon): > 100 µM | TGI (NCI/ADR-RES ovarian): > 100 µM | TGI (A549 NSCLC): > 100 µM | TGI (MDA-MB-435): 66.5 µM | TGI (DU-145 prostate): > 100 µM | TGI (OVCAR-8 ovarian): 68.1 µM | TGI (KM12 colon): > 100 µM | TGI (NCI-H23 lung): > 100 µM | TGI (SF-268 CNS): 42.2 µM | TGI (UACC-62 melanoma): 32.6 µM | TGI (HCT-15 colon): 45 µM | TGI (OVCAR-4 ovarian): > 100 µM | TGI (SNB-75 CNS): > 100 µM | TGI (RXF 393 renal): 44.9 µM | TGI (HL-60(TB) leukemia): 17.7 µM | TGI (OVCAR-3 ovarian): 62.8 µM | TGI (UO-31 renal): > 100 µM
